What was measured:
LDL-receptor = LDL-receptor (Homo sapiens, UniProt P01130); assay: Degradation of LDL by the LDL-receptor; type: cell-based; settings: leptin up to 2 μg/mL
rat LSR = assay: Ligand blot of 125I-leptin on partially purified rat LSR; type: binding; settings: 200 ng/mL 125I-leptin
Experimental: Aliquots (72 μg) of partially purified rat liver LSR were separated on a 4%-12% SDS-gradient polyacrylamide gel, and transferred to nitrocellulose as described previously (Yen F. T., Masson M., Clossais-Besnard N., Andre P., Grosset J. M., Bougueleret L., Dumas J. B., Guerassimenko, O., and Bihain B. E. (1999). J Biol Chem 274, 13390-13398) a gel strip stained with Coomassie blue is shown in lane 1. The nitrocellulose strips were washed, blocked, and incubated with anti-rat LSR protein antiserum (1:1000 dilution) (lane 2), or with 200 ng/mL ^125I-leptin (lane 3). The strips were washed and bands were detected as described herein. Image analysis of lane 3 was performed on a Phosphorimager (Molecular Dynamics).
Partially purified rat LSR (240 kDa band complex) was obtained as described previously (Yen F. T., Masson M., Clossais-Besnard N., Andre P., Grosset J. M., Bougueleret L., […] Dumas J. B., Guerassimenko, O., and Bihain B. E. (1999). J Biol Chem 274, 13390-13398.) The band was separated on non-denaturing 4-12% gradient SDS polyacrylamide gel, and was transferred to nitrocellulose by semi-dry transfer (Biorad, 18 V, […]). […]

db^Pas/db^Pas mice = assay: Postprandial plasma TG response after high-fat test meal in db^Pas/db^Pas mice; type: in vivo, mouse
Experimental: FIGS. 1A and 1B show the effect of leptin on postprandial plasma TG response in db/db and db^Pas/db^Pas mice. Overnight-fasted db/db (A), db^Pas/db^Pas (B) mice were gavage-fed a high-fat test meal and immediately injected intravenously (db/db) or intraperitoneally (db^Pas/db^Pas) with saline (open symbols) or 50 μg mouse recombinant leptin (closed symbols). At the indicated times, blood was collected from the tail (A) or orbital (B) vein, plasma was separated by centrifugation, and plasma TG concentrations were determined using an enzymatic kit. Each point represents the mean±SEM (db/db: saline, n=4, leptin, n=3; db^Pas/db^Pas: saline, n=6, leptin, n=7). The average plasma lipid response in 10 control C57BL6 mice is shown as a dotted line in both A and B. In a separate experiment, shown as an inset for each strain of mice, overnight fasted db/db (●) or db^Pas/db^Pas (▪) mice were gavage-fed the test meal and immediately injected intravenously with increasing concentrations of leptin. The plasma lipid response was then measured as in A and B. The area under the response curve (AUC) was then calculated using a triangulation method on Microsoft Excel between 0 and 4 hr (mg TG·h/mL). Values are presented as % of control value (test meal alone obtained in A or B). Each point represents the mean of at least 3 mice.
FIGS. 7A and 7B show a comparison of the effect of human and mouse leptin on LSR activity in rat hepatocytes and on postprandial increase in plasma TG in db^Pas/db^Pas mice. For FIG. 7A, primary cultures of rat hepatocytes were incubated 30 min at 37° C. without (open bar) or with 10 ng/mL recombinant human (solid bar) or mouse (hatched bar) leptin in Buffer A. Oleate (0.5 mM) and ^125I-LDL (20 μg/mL) were added and the cells were incubated 2 h at 37° C. The media were removed and were analyzed for TCA-soluble degradation products. The mean of duplicate determinations is shown. For FIG. 7B, db^Pas/db^Pas mice were given a test meal as previously described, followed immediately by injection i.p. of saline (open bar, n=4), human leptin (1 μg/animal; solid bar, n=3) or mouse leptin (0.25 μg/animal; hatched bar; n=3). The data represent the difference in TG concentrations measured at t=0 and the average of the concentrations at 3 and 4 hours. Results are shown as mean±SEM.
Mice that were fasted for 2-3 hours were gavage-fed 300 μL of a test meal consisting of 60% fat (37% saturated, 27% mono-, and 36% polyunsaturated fatty acids), 20% protein and 20% carbohydrate, and providing 56 kcal of energy/kg (1.5 g butter, 1.5 g sunflower oil, 2.5 g nonfat dry milk, 2.5 g sucrose and 3 ml water). […] TG concentrations were determined using a commercially available enzymatic kit with controls included in each assay (Precinorm L, Roche-Boehringer Mannheim; Lyotrol N, BioMérieux).

LDL-receptor, sequence (P01130 22-860, species assumed): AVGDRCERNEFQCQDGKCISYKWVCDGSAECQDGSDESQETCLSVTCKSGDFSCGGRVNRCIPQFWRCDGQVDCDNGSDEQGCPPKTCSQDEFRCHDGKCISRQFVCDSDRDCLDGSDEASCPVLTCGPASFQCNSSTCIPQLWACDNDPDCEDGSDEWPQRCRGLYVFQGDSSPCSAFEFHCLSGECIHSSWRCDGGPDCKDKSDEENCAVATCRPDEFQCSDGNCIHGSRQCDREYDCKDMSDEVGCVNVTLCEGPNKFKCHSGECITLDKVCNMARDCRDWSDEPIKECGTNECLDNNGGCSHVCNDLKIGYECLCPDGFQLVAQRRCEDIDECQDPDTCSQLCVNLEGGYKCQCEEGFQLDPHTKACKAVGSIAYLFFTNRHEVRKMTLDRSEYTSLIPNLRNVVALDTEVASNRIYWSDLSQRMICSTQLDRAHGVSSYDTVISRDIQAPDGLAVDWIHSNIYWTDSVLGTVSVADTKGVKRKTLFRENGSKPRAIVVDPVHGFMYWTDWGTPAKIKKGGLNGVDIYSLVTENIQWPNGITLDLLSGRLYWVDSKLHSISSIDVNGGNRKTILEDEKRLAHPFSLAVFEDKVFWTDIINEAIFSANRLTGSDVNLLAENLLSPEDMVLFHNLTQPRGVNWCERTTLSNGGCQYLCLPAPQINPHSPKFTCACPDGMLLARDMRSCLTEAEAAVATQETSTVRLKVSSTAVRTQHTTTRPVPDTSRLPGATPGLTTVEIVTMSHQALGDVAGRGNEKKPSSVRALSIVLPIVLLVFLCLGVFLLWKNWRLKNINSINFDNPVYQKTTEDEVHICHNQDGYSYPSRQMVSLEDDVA

- degradation of LDL by the LDL-receptor (LDL-receptor): no detectable effect
- binding of 125I-leptin to partially purified rat LSR multimeric complexes (rat LSR): bound
Substance: leptin: plasma protein of 16 kDa produced by adipocytes; recombinant human or mouse leptin, species depends on the experiment
- area under the TG curve (db^Pas/db^Pas mice; 250 ng leptin per animal, AUC 0-4 h): significant reduction
- decrease of the area under the postprandial TG curve (db^Pas/db^Pas mice; 500 ng leptin per animal (maximum effect)): > 65%
- amplitude of the triglyceride response (db^Pas/db^Pas mice; single bolus 50 μg mouse recombinant leptin i.p. at time of test meal): decreased the amplitude of the triglyceride response

From patent US7470669B2, “Isolated polypeptide comprising a leptin fragment” (Serono Genetics Institute, S.A., priority 1999, dated 2008)
